Assay results reported in patent publication US4229479A, “Fluoracylresorcinols as ingredients in pharmaceutical, cosmetic and pesticidal compositions” (Boehringer Ingelheim GmbH, priority 1976, dated 1980).
Read-outs that look alike come from different tables or passages of the source.

Experiments:
[1] = biological target: T1, glucose-6-phosphate-dehydrogenase (Saccharomyces cerevisiae, UniProt P11412); experiment: Inhibition of the glucose-6-phosphate-dehydrogenase; type: biochemical; conditions: 366 nm
T1 construct: purchased Boehringer Mannheim
T1 sequence (P11412 1-505): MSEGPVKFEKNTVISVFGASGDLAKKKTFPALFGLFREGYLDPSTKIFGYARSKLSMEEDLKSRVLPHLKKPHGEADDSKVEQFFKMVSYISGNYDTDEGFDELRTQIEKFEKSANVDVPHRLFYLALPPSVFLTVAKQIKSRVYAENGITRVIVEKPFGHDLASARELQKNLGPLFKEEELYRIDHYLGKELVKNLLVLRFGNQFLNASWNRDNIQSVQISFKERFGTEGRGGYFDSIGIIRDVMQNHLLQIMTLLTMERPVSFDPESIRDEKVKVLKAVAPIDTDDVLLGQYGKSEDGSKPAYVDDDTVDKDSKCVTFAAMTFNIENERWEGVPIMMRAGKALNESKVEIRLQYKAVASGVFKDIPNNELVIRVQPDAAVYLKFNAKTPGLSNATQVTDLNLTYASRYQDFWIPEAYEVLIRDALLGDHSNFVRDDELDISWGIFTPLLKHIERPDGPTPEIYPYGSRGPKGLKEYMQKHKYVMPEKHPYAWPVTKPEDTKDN
Description: Measurement of the inhibition of the glucose-6-phosphate-dehydrogenase.
The equilibrium was observed: [drawing 6]
The rate of formation of NADPH is a measure for the enzyme activity; it may be observed by means of the extinction increase at 340,334 or 366 nm per unit of time.
0.025 ml of glucose-6-phosphate-dehydrogenase (Boehringer Mannheim) were filled up to 10 ml of distilled water (solution I). 100 mgm of nicotinamide-adenine-dinucleotide-phosphate were dissolved in 13 ml of distilled water (solution II). 47.2 mgm of glucose-6-phosphate were dissolved in further 10 ml of distilled water (solution III). Simultaneously a buffer solution (solution IV) was prepared as follows:
0.28 gm of triethanolamine-hydrochloride and 1.461 gm of ethylene diaminotetraacetic acid-disodium salt were dissolved in 1 liter of distilled water and adjusted to a pH of 7.6 with sodium hydroxide solution. The substance under test was dissolved in dimethyl formamide or ethanol (solution V). Tested concentrations: 50; 25; 12.5; 6.25; 3.125; 1.56 and 0.78 μg/ml.
0.1 ml of solution I, 0.1 ml of solution II, 2.67 ml of solution IV and 0.03 ml of solution V were mixed and kept at 25° C. for 5 minutes. Then 0.1 ml of solution III was added, mixed and the alteration of extinction was determined spectrophotometrically at 366 nm for 3 minutes.
0.1 ml of solution I, 0.1 ml of solution II, 2.67 ml of solution IV and 0.03 ml of solution V were mixed and kept at 37° C. for 60 minutes. Then 0.1 ml of solution III was added, mixed and the alteration of extinction was measured spectrophotometrically at 366 nm for 3 minutes.
The inhibitory values were calculated from the average values of three measurements (alteration of extinction per minute) compared with controls, which received the pure solvent as the inhibitory solution. Then the ED50 was calculated according to Reed and Muench from the inhibitory values for the various concentrations.

[2] = Acute toxicity, LD50 in the mouse; conditions: in vivo, ip, death within 14 days
Description: The acute toxicity was determined with mice. The LD50, the dose leading to the death of 50% of the animals within 14 days, was calculated.

HeLa-cell culture = experiment: Inhibition of cell cultures (HeLa); type: cell-based; conditions: Homo sapiens, 72 h, 37° C., 3 days, read-out: Minimal inhibitory concentration
Description: Measurement of the inhibition of cell cultures
HeLa-cell culture was treated with trypsin and adjusted to a cell number of 150,000 cells/ml of fresh medium. The substance was always dissolved in the same quantity of dimethyl sulfoxide and then further diluted with growth medium. 0.1 ml of the substance-dilutions were added to each well of microtiter plates and then 0.2 ml of cell suspension were added (4 wells per dilution). Several growth controls containing 0.1 ml of growth medium instead of 0.1 ml of substance dilution were put up. After careful mixing, the cultures were incubated at 37° C. for 3 days in a 5% carbon dioxide atmosphere. The reading was effected in comparison with these controls. The results were given as the percentage of the deficiency and degeneration compared to the growth control. […] The data are referred to μg of substance per ml of total medium.

humans = conditions: cited from earlier work
[3] = Compatibility on the skin under occlusion; type: in vivo; conditions: cream containing 10% of compound A; over 24 hours under occlusion
[4] = 25° C., 5 minutes before substrate, read-out: G6PDH-inhibition ED50, Immediate Inhibition (converted)
[5] = 37° C., 60 minutes before substrate, read-out: G6PDH-inhibition ED50, Inhibition of Incubation (converted)

| SMILES | IC50 [1, 4] | IC50 [1, 5] | LD50 at 336 h [2] | minimal effective concentration (HeLa-cell culture) | allergies in humans (humans) | compatibility on the skin [3] |
| --- | --- | --- | --- | --- | --- | --- |
| CCc1c(O)ccc(C(=O)C(F)(F)F)c1O [C, 3-Ethyl-2,4-dihydroxy-trifluoroacetophenone] | 160 µM | 85.4 µM | – | – | – | – |
| CCc1cc(C(=O)C(F)(F)F)c(O)cc1O [Compound B, 5-Ethyl-2,4-dihydroxy-trifluoroacetophenone] | 147 µM | 128 µM | 88 mg/kg | – | – | – |
| COc1ccc(C(=O)C(F)(F)F)c(OC)c1 [D, 2,4-Dimethoxy-trifluoroacetophenone] | > 214 µM | > 214 µM | – | 25 µg/mL | – | – |
| CCCCCCc1ccc(O)cc1O [hexylresorcinol] | – | – | – | – | in some cases cause allergies in humans | – |
| O=C(c1ccc(O)cc1O)C(F)(F)F [Compound A, 2,4-Dihydroxy-trifluoroacetophenone] | > 243 µM | 160 µM | 105 mg/kg | – | – | tolerated without irritation |
